Measured values from publication PMC7413254 (Nature Communications, 2020).
Where two headings read alike, the source gives them in different places.

How the values were obtained:
PfCRT^Dd2 = PfCRT^Dd2 (Plasmodium falciparum, UniProt Q9N623, A220S/I356T/K76T/M74I/N326S/N75E/Q271E/R371I); assay: cell-based; settings: mean ± SEM, n = 5, SEM
Protocol: (§1) The characterisation of [^3H]VF-6 transport via 23 different field and laboratory-derived isoforms of PfCRT was undertaken with oocytes two days post-cRNA-injection (Figs. 3a–j, 4; Supplementary Fig. 2). The oocytes were injected with 25 nL of ND96 buffer (pH 5.5) supplemented with [^3H]VF-6 and unlabelled VF-6 to achieve estimated intracellular concentrations of 1.4 and 200 μM, respectively. Ten oocytes that had resealed at the injection site were transferred to a 5 mL polystyrene round bottom tube (In Vitro Technologies) and washed with 3.5 mL of ND96 buffer before being transferred to separate wells of a white 96-well plate (PerkinElmer). This treatment served to establish the amount of radioactivity within the oocytes immediately prior to the commencement of the transport assay. Another 10 resealed oocytes were transferred to a 5 mL tube and washed with 3.5 mL of ND96 buffer. […] The assay was terminated by removing the reaction buffer with a pipette and washing the oocytes twice with 3.5 mL of ice-cold ND96 buffer. Each oocyte was transferred to a separate well of a white 96-well plate. The oocytes were lysed by the addition of 20 μL of 10% (w/v) SDS and overnight incubation at room temperature. The lysed oocyte was then combined with 150 μL of MicroScint-40 microscintillant (PerkinElmer), the plate covered with a TopSeal-A (PerkinElmer), and the radioactivity measured with a MicroBeta^2 microplate liquid scintillation analyser (PerkinElmer). VF-6 transport was calculated by subtracting the amount of radioactivity (measured in counts per minute) present within the oocytes at the end of the incubation from that measured in the oocytes sampled immediately before the commencement of the assay. The pH-dependence of transport (Fig. 3c) was determined by injecting the oocytes with [^3H]VF-6 suspended in 25 nL ND96 buffer adjusted to pH 5.0, 5.5, 6.0 or 7.0, which corresponded to the injection of 2.5–250 fmol of H^+. The dependence of [^3H]VF-6 transport on Na^+ or Cl^− was examined by injecting the oocytes with [^3H]VF-6 suspended in the control ND96 buffer (pH 5.5) or a version of this buffer that lacked either Na^+ or Cl^− (Supplementary Fig. 2). […] The dependence of peptide transport on Ca^2+ was determined by injecting the oocytes with [^3H]VF-6 suspended in ND96 buffers that contained different concentrations of Ca^2+ (0–5 mM; Supplementary Fig. 2). […] The dependence of PfCRT-mediated transport on the membrane potential was examined by using (1) Na^+ ionophore III in conjunction with the Na^+ gradients listed in Supplementary Data 7 and (2) Cl^− ionophore III in conjunction with the Cl^− gradients listed in Supplementary Data 7 to clamp the membrane potential of the oocyte from −80 to +80 mV. […] The kinetic parameters for VF-6 transport via different isoforms of PfCRT (Figs. 3e and 4a) were determined in SigmaPlot Windows Version 11.0 by a least-squares fit of the Michaelis–Menten equation to the data.
(§2) A subset of assays measured the ability of solutes known to interact with PfCRT to either cis-inhibit, trans-inhibit or trans-stimulate [^3H]VF-6 transport. These experiments involved adding these solutes to either the cis- or trans-side of the membrane relative to [^3H]VF-6. […] At least five independent experiments were performed (on different days and using oocytes from different frogs), and within each experiment measurements were made from ten oocytes per treatment.

PfCRT^Ecu1110 = PfCRT^Ecu1110 (Plasmodium falciparum, UniProt Q9N623, A220S/I356L/K76T/N326D); assay: cell-based; settings: mean ± SEM, n = 5, SEM
Sequence of PfCRT^Ecu1110 (Q9N623 whole entry A220S/I356L/K76T/N326D): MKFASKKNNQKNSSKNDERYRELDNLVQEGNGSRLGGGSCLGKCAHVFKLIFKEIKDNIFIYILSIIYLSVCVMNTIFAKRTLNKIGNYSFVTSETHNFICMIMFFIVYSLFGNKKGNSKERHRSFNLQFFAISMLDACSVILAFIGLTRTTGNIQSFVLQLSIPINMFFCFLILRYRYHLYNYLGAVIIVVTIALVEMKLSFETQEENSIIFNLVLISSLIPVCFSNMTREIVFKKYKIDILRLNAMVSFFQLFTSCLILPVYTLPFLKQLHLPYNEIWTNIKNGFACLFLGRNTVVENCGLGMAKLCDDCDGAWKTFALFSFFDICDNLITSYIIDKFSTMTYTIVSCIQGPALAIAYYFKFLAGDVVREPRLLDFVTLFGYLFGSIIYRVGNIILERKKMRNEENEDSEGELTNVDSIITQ
Protocol: as §1, §2

PfCRT^3D7 = PfCRT^3D7 (Plasmodium falciparum, UniProt Q8IBZ9); assay: cell-based; settings: for IC50: mean ± SEM, n = 5, SEM; for Trans effect on [3H]VF-6 transport via PfCRT (in words): all three PfCRT isoforms (3D7, Ecu1110, Dd2)
Sequence of PfCRT^3D7 (Q8IBZ9 59-398): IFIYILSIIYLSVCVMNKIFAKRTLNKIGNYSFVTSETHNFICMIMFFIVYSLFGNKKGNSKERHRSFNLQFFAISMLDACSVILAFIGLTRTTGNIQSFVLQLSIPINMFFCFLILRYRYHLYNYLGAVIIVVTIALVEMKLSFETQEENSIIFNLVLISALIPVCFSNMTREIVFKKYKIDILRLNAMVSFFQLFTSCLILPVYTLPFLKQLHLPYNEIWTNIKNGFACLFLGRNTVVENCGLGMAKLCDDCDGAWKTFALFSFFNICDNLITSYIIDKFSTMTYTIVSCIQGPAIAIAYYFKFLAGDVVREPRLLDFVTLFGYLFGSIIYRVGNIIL
Protocol: as §1, §2

[1] = target: T1, PfCRT^7G8 in C6^7G8 parasites (Plasmodium falciparum, UniProt Q8IBZ9, A220S/C72S/I351M/I356L/K76T/N326D); assay: P. falciparum H+-efflux assay (rate of DV alkalinisation after concanamycin A); type: cell-based; settings: C67G8; for Effect on rate of DV alkalinisation / H+ leak (in words): test solute 10 μM
T1 construct: PfCRT also functions as a peptide transporter within its native environment of the DV membrane; expressed in transfected cells; host or cells: P. falciparum pfcrt transfectant line C6^7G8 (saponin-isolated trophozoites)
T1 sequence (Q8IBZ9 1-424 C72S/K76T/A220S/N326D/I351M/I356L): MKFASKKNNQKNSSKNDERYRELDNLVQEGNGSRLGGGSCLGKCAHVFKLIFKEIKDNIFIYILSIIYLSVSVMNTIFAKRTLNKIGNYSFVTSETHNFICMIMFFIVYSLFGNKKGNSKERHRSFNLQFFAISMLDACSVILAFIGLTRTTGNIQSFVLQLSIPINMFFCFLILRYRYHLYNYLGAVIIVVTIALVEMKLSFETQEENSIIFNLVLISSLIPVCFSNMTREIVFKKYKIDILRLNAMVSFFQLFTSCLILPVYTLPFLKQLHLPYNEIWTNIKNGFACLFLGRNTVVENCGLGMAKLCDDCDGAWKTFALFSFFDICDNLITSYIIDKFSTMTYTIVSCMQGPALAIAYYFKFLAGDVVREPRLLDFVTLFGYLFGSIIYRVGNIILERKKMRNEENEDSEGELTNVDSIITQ

PfCRT = assay: Test of solutes as potential co-substrates for influx of VF-6 via PfCRT into the oocyte; type: cell-based, Plasmodium falciparum; design: key: X: Compounds that have been tested as potential co-substrates but are not required for influx of VF-6 via PfCRT into the oocyte; settings: X = tested
[2] = system: C4^Dd2 versus C2^GC03 infected erythrocytes; assay: Peptidomic analysis, peptide levels in C4^Dd2 relative to C2^GC03 parasites (LC-MS); type: cell-based, Plasmodium falciparum
[3] = Cis-inhibition IC50 of [3H]VF-6 transport, PfCRTDd2, drug on same side as [3H]VF-6
[4] = Cis-inhibition IC50 of [3H]VF-6 transport, PfCRTEcu1110, drug on same side as [3H]VF-6
[5] = Peptides tested before peptidomic data was obtained

Sequence of PfCRT^Dd2 (Q9N623 whole entry A220S/I356T/K76T/M74I/N326S/N75E/Q271E/R371I, canonical isoform): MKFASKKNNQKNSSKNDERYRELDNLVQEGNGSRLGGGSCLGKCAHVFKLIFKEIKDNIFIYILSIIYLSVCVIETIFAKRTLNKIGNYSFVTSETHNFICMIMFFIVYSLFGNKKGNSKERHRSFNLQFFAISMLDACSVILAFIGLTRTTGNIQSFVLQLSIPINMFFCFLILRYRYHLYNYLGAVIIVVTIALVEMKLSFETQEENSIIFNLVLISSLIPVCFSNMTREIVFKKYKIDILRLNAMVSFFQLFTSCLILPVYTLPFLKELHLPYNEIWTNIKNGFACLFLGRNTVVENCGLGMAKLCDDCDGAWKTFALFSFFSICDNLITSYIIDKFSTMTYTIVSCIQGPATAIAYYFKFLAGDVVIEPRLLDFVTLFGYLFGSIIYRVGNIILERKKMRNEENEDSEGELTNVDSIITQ

CCN(CC)CCCC(C)Nc1ccnc2cc(Cl)ccc12 (stereo not shown) [CQ, chloroquine, reference compound]
IC50 (PfCRT^Dd2; [3]): 53 ± 2.8 µM | IC50 (PfCRT^Dd2; Trans-inhibition IC50 of [3H]VF-6 transport, PfCRTDd2, drug on opposite side to [3H]VF-6): 54 ± 3.6 µM | IC50 (PfCRT^Ecu1110; [4]): 72 ± 3.1 µM | IC50 (PfCRT^Ecu1110; Trans-inhibition IC50 of [3H]VF-6 transport, PfCRTEcu1110, drug on opposite side to [3H]VF-6): 62 ± 2.6 µM | IC50 (PfCRT^3D7; Cis-inhibition IC50 of [3H]VF-6 transport, PfCRT3D7, drug on same side as [3H]VF-6): 110 ± 5.9 µM | IC50 (PfCRT^3D7; Trans-inhibition IC50 of [3H]VF-6 transport, PfCRT3D7, drug on opposite side to [3H]VF-6): 77 ± 5.2 µM | Extracellular concentration giving modest trans-stimulation of [3H]VF-6 transport (PfCRT^3D7; all three PfCRT isoforms): ≥ 500 µM | Effect on rate of DV alkalinisation / H+ leak (in words) [1]: increase

N[C@@H](Cc1c[nH]cn1)C(=O)O [L-histidine]
Tested as potential co-substrate but not required for influx of VF-6 via PfCRT into the oocyte (PfCRT): X | Effect on rate of DV alkalinisation / H+ leak (in words) [1]: without effect

CC(C)[C@H](N)C(=O)O [L-valine]
Tested as potential co-substrate but not required for influx of VF-6 via PfCRT into the oocyte (PfCRT): X

CC(C)(C)NC(=O)[C@@H]1C[C@@H]2CCCC[C@@H]2CN1C[C@@H](O)[C@H](Cc1ccccc1)NC(=O)[C@H](CC(N)=O)NC(=O)c1ccc2ccccc2n1 [Saquinavir, saquinavir, reference compound]
IC50 (PfCRT^Dd2; [3]): 89 ± 3.8 µM | IC50 (PfCRT^Ecu1110; [4]): 74 ± 3.9 µM | Trans effect on [3H]VF-6 transport via PfCRT (in words) (PfCRT^3D7): trans-stimulated | Trans effect on [3H]VF-6 transport via PfCRT (in words) (PfCRT^3D7; listed as SQV): Trans-stimulates | IC50 (PfCRT^3D7; drug on same side as [3H]VF-6, read-out: Cis-inhibition IC50 of [3H]VF-6 transport, PfCRT3D7): 50 ± 2.3 µM | Maximum rate of peptide mimic-induced DV alkalinization ([1]; mean ± SEM, n = 5, SEM): 0.022 ±0.004 fluorescence ratio/s | Effect on rate of DV alkalinisation / H+ leak (in words) [1]: increased the rate of DV alkalinisation

DPVN [DN-4]
Assignment as substrate or not a substrate based on accumulation ratios from peptidomic data ([2]; Peptides tested after peptidomic data was obtained): substrate

PENF [PEF-4]
Assignment as substrate or not a substrate based on accumulation ratios from peptidomic data [2, 5]: substrate

PHFD [PD-4]
Assignment as substrate or not a substrate based on accumulation ratios from peptidomic data [2, 5]: substrate

PVNF [PF-4]
Tested as potential co-substrate but not required for influx of VF-6 via PfCRT into the oocyte (PfCRT): X
